Experimental data from patent publication US20180206495A1, “SUBSTITUTED ARYL AND HETEROARYL CARBOXYLIC ACID HYDRAZIDES OR SALTS THEREOF AND USE THEREOF TO INCREASE STRESS TOLERANCE IN PLANTS” (BAYER CROPSCIENCE AKTIENGESELLSCHAFT, priority 2015, published 2018).

Experiments:
Zea mays = experiment: In vivo analyses Part A: drought stress, spray application, visual damage scoring, Zea mays
Description: (§1) Seeds of monocotyledonous and dicotyledonous crop plants were sown in sandy loam in wood-fiber or plastic pots, covered with soil or sand and cultivated in a greenhouse under good growth conditions. The trial plants were treated at the early leaf stage (BBCH10-BBCH13). To assure uniform water supply before commencement of stress, the potted plants were supplied with water by dam irrigation prior to substance application. The inventive compounds formulated in the form of wettable powders (WP) were sprayed onto the green parts of the plants as an aqueous suspension at an equivalent water application rate of 600 l/ha with addition of 0.2% wetting agent (e.g. agrotin). Substance application was followed immediately by stress treatment of the plants. For this purpose, the wood-fiber pots were transferred in plastic inserts in order to prevent them from subsequently drying out too quickly. Drought stress was induced by gradual drying out under the following conditions: “Day”: 14 hours with illumination at ˜26-30° C. “Night”: 10 hours without illumination at ˜18-20° C. The duration of the respective stress phases was guided mainly by the condition of the stressed control plants. It was ended (by re-irrigating and transfer to a greenhouse with good growth conditions) as soon as irreversible damage was observed on the stressed control plants. The end of the stress phase was followed by an about 4-7-day recovery phase, during which the plants were once again kept under good growth conditions in a greenhouse. The duration of the recovery phase was guided mainly by when the trial plants had attained a state which enabled visual scoring of potential effects, and is therefore variable. Once this juncture was reached, the intensities of damage were scored visually in comparison to untreated, unstressed controls of the same age. The damage intensity was at first assessed in per cent. These values were then used to calculate the efficacy of the test compounds by the following formula: [formula] EF: Efficacy DIs: Damage intensity of the stressed control plants DIt: Damage intensity of the stressed plants treated with test compound The values reported in tables A-1 to A-3 below are mean values from at least one trial with at least two repeats, showing the effects of selected compounds of the general formula (I) under drought stress on various crop plants.

Brassica napus [1] = experiment: In vivo analyses Part A: drought stress, spray application, visual damage scoring, Brassica napus
Description: as §1

Triticum aestivum [2] = experiment: In vivo analyses Part A: drought stress, spray application, visual damage scoring, Triticum aestivum; details: dosage 250 g/ha
Description: as §1

Triticum aestivum [3] = experiment: In vivo analyses Part B: drought stress, spray application, appearance vs stressed control in categories, Triticum aestivum; parameters: key: 0: no positive effect; +: slight positive effect; ++: clear positive effect; +++: strong positive effect
Description: (§2) Seeds of monocotyledonous and dicotyledonous crop plants were sown in sandy loam in plastic pots, covered with soil or sand and cultivated in a greenhouse under good growth conditions. The test plants are treated at the early leaf stage (BBCH10-BBCH13). To assure uniform water supply before commencement of stress, the potted plants were supplied with water by dam irrigation prior to substance application. The inventive compounds were first formulated as wettable powders (WP) or dissolved in a solvent mixture. The further dilution was effected with water supplemented with 0.2% wetting agent (e.g. agrotin). The finished spray liquor was sprayed onto the green parts of the plant at an equivalent water application rate of 600 l/ha. Substance application was followed immediately by stress treatment of the plants. Drought stress was induced by gradual drying out under the following conditions: “Day”: 14 hours with illumination at ˜26-30° C. “Night”: 10 hours without illumination at ˜18-20° C. The duration of the respective stress phases was guided mainly by the condition of the stressed control plants. It was ended (by re-irrigating and transfer to a greenhouse with good growth conditions) as soon as irreversible damage was observed on the stressed control plants. The end of the stress phase was followed by an about 4-7-day recovery phase, during which the plants were once again kept under good growth conditions in a greenhouse. The duration of the recovery phase was guided mainly by when the trial plants had attained a state which enabled visual scoring of potential effects, and was therefore variable. Once this juncture had been reached, the appearance of the plants treated with test substances was recorded in comparison to the stressed control plants by the following categories: • 0 no positive effect • + slight positive effect • ++ clear positive effect • +++ strong positive effect In order to rule out any influence on the effects observed by any fungicidal or insecticidal action of the test compounds, it was additionally ensured that the tests proceeded without fungal infection or insect infestation. The values reported in tables B-1 and B-2 below are mean values of the results from at least three repeats. Effects of selected compounds of the general formula (I) under drought stress according to the following tables B-1 and B-2: […]

Brassica napus [4] = experiment: In vivo analyses Part B: drought stress, spray application, appearance vs stressed control in categories, Brassica napus; parameters: key: 0: no positive effect; +: slight positive effect; ++: clear positive effect; +++: strong positive effect; details: dosage 25 g/ha
Description: as §2

SMILES	EF [%] (ZEAMX) (Zea mays; dosage 250 g/ha)	EF [%] (BRSNS) (Brassica napus [1]; dosage 25 g/ha)	also measured
CN(C)N(Cc1c(Cl)cccc1Cl)C(=O)c1ccccc1C(F)(F)F [A1-7]	>5%	–	–
CN(C)N(Cc1ccccn1)C(=O)c1ccccc1C(F)(F)F [A1-21]	–	>5%	–
COc1c(C)cnc(CN(C(=O)c2ccccc2C(F)(F)F)N(C)C)c1C [A1-37]	–	–	EF [%] (BRSNS) (Brassica napus [1]; dosage 2.5 g/ha): >5%; EF [%] (TRZAS) (Triticum aestivum [2]): >5%
CN(C)N(Cc1nccc(Cl)c1Cl)C(=O)c1ccccc1C(F)(F)F [A1-40, N-[(3,4-Dichloropyridin-2-yl)methyl]-N′,N′-dimethyl-2-(trifluoromethyl)benzohydrazide]	>5%	–	EF [%] (BRSNS) (Brassica napus [1]; dosage 2.5 g/ha): >5%; EF [%] (TRZAS) (Triticum aestivum [2]): >5%; Effect (TRZAS) (Triticum aestivum [3]; dosage 250 g/ha): ++
CN(C)N(Cc1ccc(Br)cc1F)C(=O)c1ccccc1C(F)(F)F [A1-44]	>5%	–	–
COc1cc(Cl)c(CN(C(=O)c2ccccc2C(F)(F)F)N(C)C)cc1OC [A1-147]	>5%	>5%	–
CN(C)N(CCc1ccccc1Cl)C(=O)c1ccccc1C(F)(F)F [A1-612]	>5%	–	Effect (BRSNS) (Brassica napus [4]): +; Effect (TRZAS) (Triticum aestivum [3]; dosage 25 g/ha): +
CN(C)N(CCc1cccc(Cl)c1)C(=O)c1ccccc1C(F)(F)F [A1-613]	>5%	–	–
CN(C)N(Cc1ccccc1Cl)C(=O)c1cc(Cl)ccc1Cl [A7-1]	–	>5%	–
CN(C)N(Cc1ccccc1F)C(=O)c1cc(Cl)ccc1Cl [A7-11]	–	>5%	–
CN(C)N(Cc1ccc2ccccc2n1)C(=O)c1cc(Cl)ccc1Cl [A7-122]	–	>5%	–
CN(C)N(CCc1ccc(C(C)(C)C)cc1)C(=O)c1cc(Cl)ccc1Cl [A7-639]	>5%	>5%	–
COc1ccccc1C(=O)N(Cc1ccccc1Cl)N(C)C [A8-1]	–	–	EF [%] (BRSNS) (Brassica napus [1]; dosage 2.5 g/ha): >5%
COc1ccccc1C(=O)N(Cc1ccccn1)N(C)C [A8-21]	>5%	>5%	EF [%] (TRZAS) (Triticum aestivum [2]): >5%
CN(C)N(Cc1ccc(Cl)cc1)C(=O)c1ccc(Cl)cc1 [A9-3]	>5%	–	EF [%] (BRSNS) (Brassica napus [1]; dosage 250 g/ha): >5%
Cc1c(OCC(F)(F)F)ccnc1CN(C(=O)c1ccc(Cl)cc1)N(C)C [A9-144]	–	–	EF [%] (ZEAMX) (Zea mays; dosage 25 g/ha): >5%
CN(C)N(CCc1ccc(Cl)cc1)C(=O)c1ccc(Cl)cc1 [A9-614]	–	–	EF [%] (BRSNS) (Brassica napus [1]; dosage 250 g/ha): >5%
CN(C)N(CCc1ccc(Cl)cc1Cl)C(=O)c1ccc(Cl)cc1 [A9-615]	>5%	–	–
CN(C)N(CCc1ccc(C(C)(C)C)cc1)C(=O)c1ccc(Cl)cc1 [A9-639]	>5%	–	–
Cc1ccc(CCN(C(=O)c2ccc(Cl)cc2)N(C)C)cc1C [A9-663]	>5%	–	–
CN(C)N(Cc1c(Cl)cccc1Cl)C(=O)c1ccccc1Cl [A10-7]	–	–	EF [%] (BRSNS) (Brassica napus [1]; dosage 250 g/ha): >5%
COc1cc(OC)nc(CN(C(=O)c2ccccc2Cl)N(C)C)n1 [A10-30]	–	–	EF [%] (TRZAS) (Triticum aestivum [2]): >5%
COc1c(C)cnc(CN(C(=O)c2ccccc2Cl)N(C)C)c1C [A10-37]	>5%	–	–
CN(C)N(Cc1ccccc1C#N)C(=O)c1ccccc1Cl [A10-61]	–	>5%	–
Cc1c(OCC(F)(F)F)ccnc1CN(C(=O)c1ccccc1Cl)N(C)C [A10-144]	–	–	EF [%] (TRZAS) (Triticum aestivum [2]): >5%
CN(C)N(Cc1ccc(Cl)cc1Cl)C(=O)c1ccc(Cl)cc1Cl [A12-5]	–	>5%	–
